System: mAb 806
Assay: Binding of yeast surface displayed EGFR 273-621 point mutants to mAb […] (flow cytometry)
Design: species or system mouse; key: ++ indicates wild type binding; +, intermediate binding; −, binding equal to negative control
Settings: 75 nM 806
Method: Out of 100 clones sequenced, roughly 20% contained multiple mutations and were omitted from subsequent analysis. […] All mutations are localized to the disulfide-bonded loop between cysteines 287 and 302, as has been previously determined (34). […] To verify the results from the fine epitope mapping library, alanine scanning through site-directed mutagenesis (SDM) was performed on the entire loop 287-302 (TABLE 7, right column). All sites with loss of binding by alanine scanning (287, 293, 298, and 302) correspond to mutants isolated from the library. […] Since an average of 6-7 amino acid substitutions are accessible by single nucleotide mutagenesis, a larger range of physicochemical diversity can be sampled compared to alanine scanning. […] The C287R substitution raises this dissociation constant to 127 nM (68% confidence interval of 103-160 nM), which gives a ΔΔG value of +2.4 kcal/mol when compared to wild-type and, in alanine scanning terms, is an intermediate loss of binding (36).
The epitope mapping library was constructed using the Stratagene GeneMorph® random mutagenesis kit to give a low mutagenesis rate. The template used for library construction was a pCT302 backbone containing EGFR fragment 273-621, with a C283A mutation to prevent disulfide mispairing, inserted for yeast display (27). The PCR products were gel purified and extracted using a Qiagen Qiaquick gel extraction kit. The library was transformed into Saccharomyces cerevisiae strain EBY100 (28) by electroporation (40) and homologous recombination (41) using a Bio-Rad (Richmond, Calif.) Gene Pulser Transfection Apparatus. […] Growth and expression of the library using yeast surface display was performed as previously described (28).
Anti-c-myc chicken IgY fraction was purchased from Molecular Probes (Eugene, Oreg.). An appropriate number of yeast cells (at least 10× library size) were washed with FACS buffer (phosphate buffered saline containing 1 mg/ml bovine serum albumin). The cells were incubated with 4 μg/ml anti-c-myc chicken IgY and the appropriate concentration of mAb for 30 min at 25° C. The cells were then washed with FACS buffer and incubated with 1:25 dilution phycoerythrin-labeled goat anti-mouse IgG (Sigma) and 1:100 dilution Alexa Fluor® 488 goat anti-chicken IgG (Molecular Probes) for 30 min at 4° C. The labeled cells were rinsed, and cell libraries were sorted using a MoFlo FACS machine at the MIT flow cytometry core facility.
Plasmids from the sorted library populations were recovered using Zymoprep™ and sequenced at the MIT Biopolymers Laboratory. Site-directed mutants were made using QuickChange® site-directed mutagenesis (Stratagene). Single clones were transformed into yeast using EZ Yeast Transformation (Zymo Research) and grown in minimal media (yeast nitrogen base, casein hydrolysate, dextrose, and phosphate buffer pH 7.4) overnight. Yeast surface protein expression was induced by transferring to minimal media with galactose and incubating overnight. For each clone, 1×10^6 cells were labeled as before with anti-c-myc chicken IgY, the appropriate mAb, and secondary fluorescent antibodies. Fluorescence data was obtained using a Coulter Epics XL flow cytometer (Beckman-Coulter) and was analyzed using DakoCytomation Summit™ software

[1] = EGFR Mutant (SDM) in loop 287-302, 273-621 on yeast
[2] = EGFR Mutant (Library), 273-621 on yeast

Row | Substance | mAb […] Binding [1] | mAb […] Binding [2] | further results
1 | E295A: yeast displayed EGFR 273-621 site-directed mutant | ++ |  | 
2 | S291A: yeast displayed EGFR 273-621 site-directed mutant | ++ |  | 
3 | E293D: yeast displayed EGFR 273-621 point mutant from library |  | + | 
4 | E293G: yeast displayed EGFR 273-621 point mutant from library |  | + | 
5 | C302G: yeast displayed EGFR 273-621 point mutant from library |  | − | 
6 | G298A: yeast displayed EGFR 273-621 site-directed mutant | + |  | 
7 | R300P: yeast displayed EGFR 273-621 point mutant from library |  | − | 
8 | V299A: yeast displayed EGFR 273-621 site-directed mutant | ++ |  | 
9 | R300C: yeast displayed EGFR 273-621 point mutant from library |  | + | 
10 | G298D: yeast displayed EGFR 273-621 point mutant from library |  | − | 
11 | A289K: yeast displayed EGFR 273-621 site-directed mutant | ++ |  | 
12 | C287Y: yeast displayed EGFR 273-621 point mutant from library |  | + | 
13 | wild-type 273-621: yeast surface displayed wild-type EGFR fragment 273-621 |  |  | mAb […] binding score (wild-type EGFR 273-621 on yeast): ++
14 | G298S: yeast displayed EGFR 273-621 point mutant from library |  | − | 
15 | D297A: yeast displayed EGFR 273-621 site-directed mutant | ++ |  | 
16 | C302R: yeast displayed EGFR 273-621 point mutant from library |  | + | 
17 | C287G: yeast displayed EGFR 273-621 point mutant from library |  | + | 

Row | Substance | mAb […] Binding [1] | mAb […] Binding [2] | further results
18 | E293K: yeast displayed EGFR 273-621 point mutant from library |  | − | 
19 | C302A: yeast displayed EGFR 273-621 site-directed mutant | − |  | 
20 | C302Y: yeast displayed EGFR 273-621 point mutant from library |  | + | 
21 | C302F: yeast displayed EGFR 273-621 point mutant from library |  | + | 
22 | K301A: yeast displayed EGFR 273-621 site-directed mutant | ++ |  | 
23 | E293A: yeast displayed EGFR 273-621 site-directed mutant | + |  | 
24 | D290A: yeast displayed EGFR 273-621 site-directed mutant | ++ |  | 
25 | C287S: yeast displayed EGFR 273-621 point mutant from library |  | + | 
26 | M294A: yeast displayed EGFR 273-621 site-directed mutant | ++ |  | 
27 | D297Y: yeast displayed EGFR 273-621 point mutant from library |  | + | 
28 | G288A: yeast displayed EGFR 273-621 site-directed mutant | ++ |  | 
29 | R300A: yeast displayed EGFR 273-621 site-directed mutant | ++ |  | 
30 | V299K: yeast displayed EGFR 273-621 site-directed mutant | ++ |  | 
31 | E296A: yeast displayed EGFR 273-621 site-directed mutant | ++ |  | 
32 | Y292A: yeast displayed EGFR 273-621 site-directed mutant | ++ |  | 
33 | K301E: yeast displayed EGFR 273-621 point mutant from library |  | + | 
34 | C287W: yeast displayed EGFR 273-621 point mutant from library |  | + | 
